Measured values as given in patent US10800789B2, “Antiviral compounds” (Gilead Pharmasset LLC, priority 2012, dated 2020).
Like-named read-outs stand apart in the source and are kept apart here.

How the values were obtained:
[1] = test system: stable HCV 1b RLuc replicon cells (dicistronic genotype 1b Con1 replicon); test: Renilla luciferase HCV replicon reporter assay, genotype 1b; type: cell-based; settings: Hepatitis C virus, 72 h, stable 1b Con1 RLuc replicon cells, 72 hours; read-out: 1b
Description: (§1) Evaluation of Cell-Based Anti-HCV Activity:
(§2) Antiviral potency (EC50) was determined using a Renilla luciferase (RLuc)-based HCV replicon reporter assay. To perform the assay for genotype 1 and 2a JFH-1, stable HCV 1a RLuc replicon cells (harboring a dicistronic genotype 1a H77 replicon that encodes a RLuc reporter), stable HCV 1b RLuc replicon cells (harboring a dicistronic genotype 1b Con1 replicon that encodes a RLuc reporter), or stable HCV 2a JFH-1 Rluc replicon cells (harboring a dicistronic genotype 2a JFH-1 replicon that encodes a RLuc reporter; with L31 present in NS5A) were dispensed into 384-well plates for EC50 assays. To perform the assay for genotype 2a (with M31 present in NS5A) or 2b, NS5A chimeric genotype 2a JFH-1 replicons that encodes a RLuc-Neo reporter and either genotype 2a J6 strain NS5A gene or genotype 2b MD2b-1 strain NS5A gene (both with M31 present) respectively, were either transiently transfected (t) into Huh-Lunet cells or were established as stably replicating replicon cells (s) is provided. Either cells were dispensed into 384-well plates for EC50 assays. To perform the assay for genotype 3 and 4, NS5A chimeric genotype 1b Con1 replicons that encodes a Pi-RLuc reporter and either genotype 3a S52 strain NS5A gene or genotype 4a ED43 strain NS5A gene respectively, were transiently transfected (t) into Huh-Lunet cells, which were subsequently dispensed into 384-well plates. Compounds were dissolved in DMSO at a concentration of 10 mM and diluted in DMSO either manually or using an automated pipeting instrument. Serially 3-fold diluted compounds were either manually mixed with cell culture media and added to the seeded cells or directly added to the cells using an automated instrument. DMSO was used as a negative (solvent; no inhibition) control, and the protease inhibitor ITMN-191 was included at a concentration>100×EC50 as a positive control. 72 hours later, cells were lysed and Renilla luciferase activity quantified as recommended by the manufacturer (Promega-Madison, Wis.). Non-linear regression was performed to calculate EC50 values.

[2] = test system: stable HCV 1a RLuc replicon cells (dicistronic genotype 1a H77 replicon); test: Renilla luciferase HCV replicon reporter assay, genotype 1a; type: cell-based; settings: Hepatitis C virus, 72 h, stable 1a H77 RLuc replicon cells
Description: as §1, §2

[3] = test system: stable HCV 2a JFH-1 Rluc replicon cells (L31 present in NS5A); test: Renilla luciferase HCV replicon reporter assay, genotype 2a JFH-1; type: cell-based; settings: Hepatitis C virus
Description: as §1, §2

[4] = test system: NS5A chimeric genotype 2a JFH-1 replicon with genotype 2b MD2b-1 strain NS5A gene (M31 present); test: Replicon assay, genotype 2b NS5A chimera; type: cell-based, HCV; settings: Hepatitis C virus
Description: as §1, §2

[5] = test system: NS5A chimeric genotype 1b Con1 replicon with genotype 3a S52 strain NS5A gene; test: Replicon assay, genotype 3a NS5A chimera; type: cell-based, HCV; settings: Hepatitis C virus
[6] = test system: NS5A chimeric genotype 1b Con1 replicon with genotype 4a ED43 strain NS5A gene; test: Replicon assay, genotype 4a NS5A chimera; type: cell-based, HCV; settings: Hepatitis C virus
[7] = test system: NS5A chimeric genotype 2a JFH-1 replicon with genotype 2a J6 strain NS5A gene (M31 present); test: Replicon assay, genotype 2a J6 NS5A chimera; type: cell-based, HCV; settings: Hepatitis C virus, read-out: 2a J6 (t) (nM), genotype 2a J6 NS5A chimeric replicon (M31), transiently transfected (t) into Huh-Lunet cells
Description: as §1, §2

[8] = read-out: 2a JFH (nM), genotype 2a JFH-1 replicon (L31 in NS5A), stable cells
[9] = read-out: 2a JFH, stable 2a JFH-1 Rluc replicon cells, L31 in NS5A, activity range
[10] = 2BS, read-out: 2b (s), stably replicating replicon cells (s), activity range
[11] = read-out: 2b (s) (nM), genotype 2b MD2b-1 NS5A chimeric replicon (M31), stably replicating replicon cells (s)
[12] = read-out: 3a (s) (nM), genotype 3a NS5A chimeric replicon, stable replicon cells (s)
[13] = read-out: 3a (s), (s), activity range
[14] = read-out: 4a (s) (nM), genotype 4a NS5A chimeric replicon, stable replicon cells (s)
[15] = read-out: 4a (s), (s), activity range

Compound | EC50 [1] | EC50 [2] | EC50 ([2]; activity range) | EC50 [3, 8] | EC50 [3, 9] | EC50 [4, 10] | EC50 [4, 11] | EC50 [5, 12] | EC50 [5, 13] | EC50 [6, 14] | EC50 [6, 15] | EC50 [7]
CC[C@H]1CC[C@@H](c2ncc(-c3ccc4c(c3)COc3cc5c(ccc6nc([C@@H]7CC[C@H](C)N7C(=O)[C@@H](NC(=O)OC)[C@@H](C)OC)[nH]c65)cc3-4)[nH]2)N1C(=O)[C@@H](NC(=O)OC)C(C)C [EQ, methyl{(2S,3R)-1-[(2S,5S)-2-(9-{2-[(2S,5S)-5-ethyl-1-{(2S)-2-[(methoxycarbonyl)amino]-3-methylbutanoyl}pyrrolidin-2-yl]-1H-imidazol-5-yl}-1,11-dihydroisochromeno[4′,3′:6,7]naphtho[1,2-d]imidazol-2-yl)-5-methylpyrrolidin-1-yl]-3-methoxy-1-oxobutan-2-yl}carbamate] | 0.036 nM | 0.034 nM | < 0.1 nM | 0.022 nM | < 0.1 nM | 0.1 to 0.999 nM | 0.279 nM | 0.475 nM | 0.1 to 0.999 nM | 0.025 nM | < 0.1 nM | 
CC[C@H]1CC[C@@H](c2ncc(-c3ccc4c(c3)COc3cc5c(ccc6nc([C@@H]7C[C@H](COC)CN7C(=O)[C@@H](NC(=O)OC)C(C)C)[nH]c65)cc3-4)[nH]2)N1C(=O)[C@@H](NC(=O)OC)C(C)C [ER, Methyl {(2S)-1-[(2S,4S)-2-(9-{2-[(2S,5S)-5-ethyl-1-{(2S)-2-[(methoxycarbonyl)amino]-3-methylbutanoyl}pyrrolidin-2-yl]-1H-imidazol-5-yl}-1,11-dihydroisochromeno[4′,3′:6,7]naphtho[1,2-d]imidazol-2-yl)-4-(methoxymethyl)pyrrolidin-1-yl]-3-methyl-1-oxobutan-2-yl}carbamate] | 0.02 nM | 0.016 nM | < 0.1 nM | 0.021 nM | < 0.1 nM | 0.1 to 0.999 nM | 0.852 nM | 2.8 nM | 1 to 44 nM | 0.011 nM | < 0.1 nM | 
COC(=O)N[C@H](C(=O)N1C[C@@H](C)C[C@H]1c1nc2ccc3cc4c(cc3c2[nH]1)OCc1cc(-c2cnc([C@@H]3CC[C@H](C)N3C(=O)[C@@H](NC(=O)OC)C3CCOCC3)[nH]2)ccc1-4)C(C)C [FP, Methyl [(2S)-1-{(2S,4S)-2-[9-(2-{(2S,5S)-1-[(2S)-2-[(methoxycarbonyl)amino]-2-(tetrahydro-2H-pyran-4-yl)acetyl]-5-methylpyrrolidin-2-yl}-1H-imidazol-5-yl)-1,11-dihydroisochromeno[4′,3′:6,7]naphtho[1,2-d]imidazol-2-yl]-4-methylpyrrolidin-1-yl}-3-methyl-1-oxobutan-2-yl]carbamate] | 0.024 nM | 0.016 nM | < 0.1 nM | 0.016 nM | < 0.1 nM | < 0.1 nM | 0.085 nM | 0.052 nM | < 0.1 nM | 0.017 nM | < 0.1 nM | 
CC[C@H](C)[C@H](NC(=O)OC)C(=O)N1[C@@H](C)CC[C@H]1c1nc2ccc3cc4c(cc3c2[nH]1)OCc1cc(-c2cnc([C@@H]3C[C@H](COC)CN3C(=O)[C@@H](NC(=O)OC)C(C)C)[nH]2)ccc1-4 [FS, Methyl {(2S,3S)-1-[(2S,5S)-2-(9-{2-[(2S,4S)-1-{(2S)-2-[(methoxycarbonyl)amino]-3-methylbutanoyl}-4-(methoxymethyl)pyrrolidin-2-yl]-1H-imidazol-5-yl}-1,11-dihydroisochromeno[4′,3′:6,7]naphtho[1,2-d]imidazol-2-yl)-5-methylpyrrolidin-1-yl]-3-methyl-1-oxopentan-2-yl}carbamate] | 0.025 nM | 0.024 nM | < 0.1 nM | 0.025 nM | < 0.1 nM | 0.1 to 0.999 nM | 0.784 nM | 0.411 nM | 0.1 to 0.999 nM | 0.017 nM | < 0.1 nM | 
CC[C@H](C)[C@H](NC(=O)OC)C(=O)N1C[C@@H](COC)C[C@H]1c1ncc(-c2ccc3c(c2)COc2cc4c(ccc5nc([C@@H]6CC[C@H](C)N6C(=O)[C@@H](NC(=O)OC)[C@@H](C)OC)[nH]c54)cc2-3)[nH]1 [FT, Methyl {(2S,3S)-1-[(2S,4S)-2-(5-{2-[(2S,5S)-1-{(2S,3R)-3-methoxy-2-[(methoxycarbonyl)amino]butanoyl}-5-methylpyrrolidin-2-yl]-1,11-dihydroisochromeno[4′,3′:6,7]naphtho[1,2-d]imidazol-9-yl}-1H-imidazol-2-yl)-4-(methoxymethyl)pyrrolidin-1-yl]-3-methyl-1-oxopentan-2-yl}carbamate] | 0.045 nM | 0.04 nM | < 0.1 nM | 0.029 nM | < 0.1 nM | 0.1 to 0.999 nM | 0.395 nM | 0.283 nM | 0.1 to 0.999 nM | 0.028 nM | < 0.1 nM | 
COC(=O)N[C@H](C(=O)N1[C@@H](C)CC[C@H]1c1ncc(-c2ccc3c(c2)COc2cc4c(ccc5nc([C@@H]6C[C@H](C)CN6C(=O)[C@@H](NC(=O)OC)[C@H](C)OC)[nH]c54)cc2-3)[nH]1)C(C)C [FU, Methyl {(2S)-1-[(2S,5S)-2-(5-{2-[(2S,4S)-1-{(2S,3S)-3-methoxy-2-[(methoxycarbonyl)amino]butanoyl}-4-methylpyrrolidin-2-yl]-1,11-dihydroisochromeno[4′,3′:6,7]naphtho[1,2-d]imidazol-9-yl}-1H-imidazol-2-yl)-5-methylpyrrolidin-1-yl]-3-methyl-1-oxobutan-2-yl}carbamate] | 0.032 nM | 0.028 nM | < 0.1 nM | 0.021 nM | < 0.1 nM | 0.1 to 0.999 nM | 0.347 nM | 0.337 nM | 0.1 to 0.999 nM | 0.018 nM | < 0.1 nM | 
COC(=O)N[C@H](C(=O)N1C[C@@H](C)C[C@H]1c1ncc(-c2ccc3c(c2)COc2cc4c(ccc5nc([C@@H]6CC[C@H](C)N6C(=O)[C@@H](NC(=O)OC)[C@@H](C)OC)[nH]c54)cc2-3)[nH]1)C(C)C [GH, Methyl {(2S)-1-[(2S,4S)-2-(5-{2-[(2S,5S)-1-{(2S,3R)-3-methoxy-2-[(methoxycarbonyl)amino]butanoyl}-5-methylpyrrolidin-2-yl]-1,11-dihydroisochromeno[4′,3′:6,7]naphtho[1,2-d]imidazol-9-yl}-1H-imidazol-2-yl)-4-methylpyrrolidin-1-yl]-3-methyl-1-oxobutan-2-yl}carbamate] | 0.027 nM | 0.02 nM | < 0.1 nM | 0.011 nM | < 0.1 nM | 0.1 to 0.999 nM | 0.247 nM | 0.07 nM | < 0.1 nM |  |  | 
CC[C@H](C)[C@H](NC(=O)OC)C(=O)N1CCC[C@H]1c1ncc(-c2ccc3c(c2)COc2cc4c(ccc5nc([C@@H]6CCCN6C(=O)[C@@H](NC(=O)OC)[C@@H](C)CC)[nH]c54)cc2-3)[nH]1 [HH] |  |  |  | 0.012 nM |  |  | 2.25 nM | 0.06 nM |  | 0.011 nM |  | 3 nM
